Results taken from PubChem BioAssay AID206 (DTP/NCI, 2004).
Where “and” joins values, the source holds several entries; their conditions need not be identical. Equal entries are not always repeated. Results filed as inconclusive are left out. Starred links: 1 amine or outer side, 2 acyl side, 3 side chain; linkers in the order of their positions; H or OH if unused. Positions of bridges follow the written chain, without caps; N, C: chain ends. Non-standard residues stand in square brackets, D forms with d. Residues, ends and D or L forms follow the SMILES beside them. Chains are numbered I, II in the order given. Actinocin(1to9) = Cc1c2oc3c(C)ccc(C(=O)[*:2])c3nc-2c(C(=O)[*:1])c(N)c1=O; NMeV = CN[CH](C(=O)O)C(C)C; Aze = O=C(O)[CH]1CCN1; Sar = CNCC(=O)O

Test system: nude mice, HT29 intrarenal xenograft, tumor weight T/C
Assay: NCI In Vivo Anticancer Drug Screen. Data for tumor model HT29;CX-1 Human Adenocarcinoma (MER+) (intrarenal inoculation) in NU/NU Swiss (nude) mice
Details: endpoint: mean tumor weight change, higher = larger tumour
Procedure, shortened: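 Tumor-bearing mice received test compound or vehicle, and tumor size or survival was recorded. Values are the treated-group measurement divided by the vehicle-treated control measurement.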

[1] = dose: 150.0 mg/kg/injection, schedule: Q04DX004 (sc), vehicle: suspension in saline
[2] = dose: 300.0 mg/kg/injection, schedule: Q04DX004 (sc), vehicle: suspension in saline
[3] = dose: 100.0 mg/kg/injection, schedule: Q01DX010 (sc), vehicle: saline with Tween-80
[4] = dose: 200.0 mg/kg/injection, schedule: Q01DX010 (sc), vehicle: saline with Tween-80
[5] = dose: 150.0 mg/kg/injection, schedule: Q04DX004 (sc), vehicle: saline with Tween-80
[6] = dose: 300.0 mg/kg/injection, schedule: Q04DX004 (sc), vehicle: saline with Tween-80
[7] = dose: 600.0 mg/kg/injection, schedule: Q04DX004 (sc), vehicle: saline with Tween-80
[8] = dose: 1200.0 mg/kg/injection, schedule: Q04DX004 (sc), vehicle: saline with Tween-80
[9] = dose: 25.0 mg/kg/injection, schedule: Q04DX004 (sc), vehicle: suspension in saline
[10] = dose: 50.0 mg/kg/injection, schedule: Q04DX004 (sc), vehicle: suspension in saline

## CCc1c(CC(=O)O)c2cc(C)ccc2n1Cc1ccc(Cl)cc1
dose: 100.0 mg/kg/injection, schedule: Q04DX004 (sc), vehicle: Klucel (hydroxypropylcellulose) (HPC)
  T/C: 77 % of control
dose: 200.0 mg/kg/injection, schedule: Q04DX004 (sc), vehicle: Klucel (hydroxypropylcellulose) (HPC)
  T/C: 74 % of control
dose: 400.0 mg/kg/injection, schedule: Q04DX004 (sc), vehicle: Klucel (hydroxypropylcellulose) (HPC)
  T/C: 86 % of control
dose: 800.0 mg/kg/injection, schedule: Q04DX004 (sc), vehicle: Klucel (hydroxypropylcellulose) (HPC)
  T/C: 97 % of control

## CNNCc1ccc(C(=O)NC(C)C)cc1
dose: 50.0 mg/kg/injection, schedule: Q01DX010 (sc), vehicle: saline
  T/C: 194 % of control
dose: 200.0 mg/kg/injection, schedule: Q01DX010 (sc), vehicle: saline
  T/C: 63 % of control and 77 % of control

## NC(=S)c1ncn(C2OC(CO)C(O)C2O)c1N (centres undefined)
[1]
  T/C: 95 % of control
[2]
  T/C: 120 % of control
dose: 600.0 mg/kg/injection, schedule: Q04DX004 (sc), vehicle: suspension in saline
  T/C: 102 % of control
dose: 1200.0 mg/kg/injection, schedule: Q04DX004 (sc), vehicle: suspension in saline
  T/C: 66 % of control

## CC(C)NCC(O)COc1ccc(O)c(O)c1 (centres undefined)
dose: 3.0 mg/kg/injection, schedule: Q04DX004 (sc), vehicle: saline
  T/C: 107 % of control
dose: 6.0 mg/kg/injection, schedule: Q04DX004 (sc), vehicle: saline
  T/C: 103 % of control
dose: 12.0 mg/kg/injection, schedule: Q04DX004 (sc), vehicle: saline
  T/C: 164 % of control

## CN(C)CCOc1ccc2c(c1)C/C(=C/c1ncc([N+](=O)[O-])n1C)C2=O
dose: 50.0 mg/kg/injection, schedule: Q01DX010 (sc), vehicle: saline with Tween-80
  T/C: 83 % of control
[3]
  T/C: 78 % of control
[4]
  T/C: 18 % of control
dose: 400.0 mg/kg/injection, schedule: Q01DX010 (sc), vehicle: saline with Tween-80
  T/C: 93 % of control

## CN1C(=O)CC2(CCN(CCCC(=O)c3ccc(F)cc3)CC2)C1=O
dose: 75.0 mg/kg/injection, schedule: Q04DX004 (sc), vehicle: suspension in saline
  T/C: 120 % of control

## COC1/C=C/O[C@@]2(C)Oc3c(C)c(O)c4c(O)c(cc(O)c4c3C2=O)NC(=O)/C(C)=C\C=C\[C@H](C)C(O)[C@@H](C)[C@@H](O)[C@@H](C)[C@H](OC(C)=O)[C@@H]1C (some centres undefined)
[1]
  T/C: 72 % of control
[2]
  T/C: 69 % of control

## O=[n+]1c2ccccc2n([O-])c2ccccc21.[Cl][Ni][Cl]
dose: 75.0 mg/kg/injection, schedule: Q04DX004 (sc), vehicle: saline with Tween-80
  T/C: 92 % of control
[5]
  T/C: 89 % of control

## O=C1N(Cl)C(=O)C(c2ccc(Cl)cc2)(c2ccc(Cl)cc2)N1Cl
[3]
  T/C: 105 % of control
[4]
  T/C: 83 % of control

## Cc1c2oc3c(C)ccc(C(=O)NC4C(=O)NC(C(C)C)C(=O)N5CCCC5C(=O)N(C)CC(=O)N(C)C(C(C)C)C(=O)OC4C)c3nc-2c(C(=O)NC2C(=O)NC(C(C)C)C(=O)N3CCC3C(=O)N(C)CC(=O)N(C)C(C(C)C)C(=O)OC2C)c(N)c1=O (centres undefined) (I: TV[Aze][Sar][NMeV] / II: TVP[Sar][NMeV]; ester I:1-I:C, II:1-II:C; linker I:N-II:N via Actinocin(1to9); configuration not given here)
dose: 0.5 mg/kg/injection, schedule: Q04DX004 (sc), vehicle: saline + alcohol
  T/C: 59 % of control
dose: 1.0 mg/kg/injection, schedule: Q04DX004 (sc), vehicle: saline + alcohol
  T/C: 30 % of control

## N#C[C@H](OC1OC(COC2OC(CO)C(O)C(O)C2O)C(O)C(O)C1O)c1ccccc1 (some centres undefined)
dose: 450.0 mg/kg/injection, schedule: Q04DX004 (sc), vehicle: suspension in saline
  T/C: 101 % of control
dose: 900.0 mg/kg/injection, schedule: Q04DX004 (sc), vehicle: suspension in saline
  T/C: 67 % of control
dose: 1800.0 mg/kg/injection, schedule: Q04DX004 (sc), vehicle: suspension in saline
  T/C: 56 % of control
dose: 3600.0 mg/kg/injection, schedule: Q04DX004 (sc), vehicle: suspension in saline
  T/C: 69 % of control

## CCCCCC#CC1OC12CCCCC2 (centres undefined)
[5]
  T/C: 74 % of control
[6]
  T/C: 62 % of control
[7]
  T/C: 77 % of control
[8]
  T/C: 100 % of control

## CCCCCCCCSC1=C(Cl)C(=O)C(OC)=C(OC)C1=O
dose: 18.0 mg/kg/injection, schedule: Q04DX004 (sc), vehicle: saline with Tween-80
  T/C: 96 % of control
dose: 36.0 mg/kg/injection, schedule: Q04DX004 (sc), vehicle: saline with Tween-80
  T/C: 82 % of control
dose: 72.0 mg/kg/injection, schedule: Q04DX004 (sc), vehicle: saline with Tween-80
  T/C: 118 % of control
dose: 144.0 mg/kg/injection, schedule: Q04DX004 (sc), vehicle: saline with Tween-80
  T/C: 59 % of control

## Nc1nc(=S)c2ncn(C3CC(O)C(CO)O3)c2[nH]1 (centres undefined)
dose: 1.8 mg/kg/injection, schedule: Q04DX004 (sc), vehicle: saline with Tween-80
  T/C: 119 % of control
dose: 3.75 mg/kg/injection, schedule: Q04DX004 (sc), vehicle: saline with Tween-80
  T/C: 105 % of control
dose: 7.5 mg/kg/injection, schedule: Q04DX004 (sc), vehicle: saline with Tween-80
  T/C: 107 % of control
dose: 100.0 mg/kg/injection, schedule: Q01DX010 (sc), vehicle: Klucel (hydroxypropylcellulose) (HPC)
  T/C: 114 % of control

## COc1cccc2c1C(=O)c1c(O)c3c(c(O)c1C2=O)CC(O)(C(=O)CO)CC3OC1CC(N)C(O)C(C)O1 (centres undefined)
dose: 48.0 mg/kg/injection, schedule: Q01DX010 (sc), vehicle: saline
  T/C: 90 % of control

## Cc1cc(NCCCCCCNc2cc(C)nc3cc(N(C)C)ccc23)c2ccc(N(C)C)cc2n1
dose: 37.5 mg/kg/injection, schedule: Q04DX004 (sc), vehicle: distilled water + Tween-80 + alcohol
  T/C: 112 % of control
dose: 75.0 mg/kg/injection, schedule: Q04DX004 (sc), vehicle: distilled water + Tween-80 + alcohol
  T/C: 42 % of control

## CC(=O)N(C)C
dose: 1350.0 mg/kg/injection, schedule: Q04DX004 (sc), vehicle: saline
  T/C: 112 % of control
dose: 2700.0 mg/kg/injection, schedule: Q04DX004 (sc), vehicle: saline
  T/C: 45 % of control

## C[C@@H]1C[C@H]2[C@@H]3CCC4=CC(=O)C=C[C@]4(C)[C@@]3(F)[C@@H](O)C[C@]2(C)[C@@]1(O)C(=O)CO
dose: 1.56 mg/kg/injection, schedule: Q01DX010 (sc), vehicle: Klucel (hydroxypropylcellulose) (HPC)
  T/C: 62 % of control
dose: 3.13 mg/kg/injection, schedule: Q01DX010 (sc), vehicle: Klucel (hydroxypropylcellulose) (HPC)
  T/C: 40 % of control
dose: 6.25 mg/kg/injection, schedule: Q01DX010 (sc), vehicle: Klucel (hydroxypropylcellulose) (HPC)
  T/C: 42 % of control
dose: 12.5 mg/kg/injection, schedule: Q01DX010 (sc), vehicle: Klucel (hydroxypropylcellulose) (HPC)
  T/C: 39 % of control

## COc1cc2c(c(OC)c1OC)-c1ccc(OC)c(=O)cc1[C@@H](NC(C)=O)CC2
dose: 0.5 mg/kg/injection, schedule: Q01DX010 (sc), vehicle: saline
  T/C: 70 % of control

## C[n+]1cccc(NC(=O)c2ccc(NC(=O)C34CCC(C(=O)Nc5ccc(C(=O)Nc6ccc[n+](C)c6)cc5)(CC3)CC4)cc2)c1
dose: 12.5 mg/kg/injection, schedule: Q04DX004 (sc), vehicle: saline with Tween-80
  T/C: 118 % of control
dose: 25.0 mg/kg/injection, schedule: Q04DX004 (sc), vehicle: saline with Tween-80
  T/C: 47 % of control
dose: 50.0 mg/kg/injection, schedule: Q04DX004 (sc), vehicle: saline with Tween-80
  T/C: 7 % of control and 21 % of control

## CCC(=O)Sc1ccccc1C(=O)Nc1ccc(Cl)cc1
[6]
  T/C: 122 % of control
[7]
  T/C: 93 % of control
[8]
  T/C: 103 % of control
dose: 2400.0 mg/kg/injection, schedule: Q04DX004 (sc), vehicle: saline with Tween-80
  T/C: 91 % of control

## CC(=O)CC(=O)CCC(=O)O
dose: 150.0 mg/kg/injection, schedule: Q04DX004 (sc), vehicle: saline
  T/C: 111 % of control
dose: 600.0 mg/kg/injection, schedule: Q04DX004 (sc), vehicle: saline
  T/C: 113 % of control
dose: 1200.0 mg/kg/injection, schedule: Q04DX004 (sc), vehicle: saline
  T/C: 104 % of control

## N=C(N)SCc1c2ccccc2c(CSC(=N)N)c2ccccc12
[9]
  T/C: 69 % of control
[10]
  T/C: 72 % of control
dose: 100.0 mg/kg/injection, schedule: Q04DX004 (sc), vehicle: suspension in saline
  T/C: 52 % of control
dose: 200.0 mg/kg/injection, schedule: Q04DX004 (sc), vehicle: suspension in saline
  T/C: 75 % of control

## CC1=CC2c3cccc4[nH]cc(c34)CC2N(C)C1 (centres undefined)
dose: 12.5 mg/kg/injection, schedule: Q04DX004 (sc), vehicle: suspension in saline
  T/C: 85 % of control
[9]
  T/C: 61 % of control
[10]
  T/C: 90 % of control
